Test results reported in publication PMC11211886 (Frontiers in Pharmacology, 2024).

What was measured:
[1] = Metabolic stability in dog liver microsomes; type: in vitro ADME; conditions: for CLint scaled at 1 µM / half-life at 1 µM: pH 7.4; for CLint scaled at 1 µM: read-out: Predicted CL int, iv vivo; for half-life at 1 µM: read-out: in vitro t1/2
Procedure: FMO was deactivated by heating liver microsomes at 45°C for 5 min. […] The natural logarithm of the percentage of the drug remaining was plotted against the incubation time, and the slope of the linear regression (-k) was converted to in vitro half-lives (t1/2) using the following equation: […] (1) metabolic clearance is the major mechanism of clearance; (2) liver is the major organ of clearance; and (3) oxidation is the major metabolic pathway. CLint,in vitro=k / Cmicrosomes , Scaled CLint,in vivo=CLint,in vitro×microsomes yield×liver weight, where Cmicrosomes means the experimental protein concentration (0.5 mg/mL) in the incubation system. […] Then, the scaled in vivo intrinsic clearance was used to predict the systemic clearance (equal to the hepatic clearance) using the well-stirred venous equilibration model ([Houston, 1994]).

[2] = Metabolic stability in rat liver microsomes; type: in vitro ADME; conditions: for CLint scaled at 1 µM: pH 7.4, Predicted CL int, iv vivo
Procedure: FMO was deactivated by heating liver microsomes at 45°C for 5 min. […] (1) metabolic clearance is the major mechanism of clearance; (2) liver is the major organ of clearance; and (3) oxidation is the major metabolic pathway. CLint,in vitro=k / Cmicrosomes , Scaled CLint,in vivo=CLint,in vitro×microsomes yield×liver weight, where Cmicrosomes means the experimental protein concentration (0.5 mg/mL) in the incubation system.

CYP2C9 = biological target: T1, CYP2C9 (Homo sapiens, UniProt P11712); assay: Time-dependent CYP inhibition in HLM, CYP2C9; type: in vitro ADME; conditions: 10 μM, 30 min pre-incubation with NADPH
T1 construct: tissue Life Technologies (Durham, NC, USA); host or cells: human liver microsomes
T1 sequence (P11712 whole entry): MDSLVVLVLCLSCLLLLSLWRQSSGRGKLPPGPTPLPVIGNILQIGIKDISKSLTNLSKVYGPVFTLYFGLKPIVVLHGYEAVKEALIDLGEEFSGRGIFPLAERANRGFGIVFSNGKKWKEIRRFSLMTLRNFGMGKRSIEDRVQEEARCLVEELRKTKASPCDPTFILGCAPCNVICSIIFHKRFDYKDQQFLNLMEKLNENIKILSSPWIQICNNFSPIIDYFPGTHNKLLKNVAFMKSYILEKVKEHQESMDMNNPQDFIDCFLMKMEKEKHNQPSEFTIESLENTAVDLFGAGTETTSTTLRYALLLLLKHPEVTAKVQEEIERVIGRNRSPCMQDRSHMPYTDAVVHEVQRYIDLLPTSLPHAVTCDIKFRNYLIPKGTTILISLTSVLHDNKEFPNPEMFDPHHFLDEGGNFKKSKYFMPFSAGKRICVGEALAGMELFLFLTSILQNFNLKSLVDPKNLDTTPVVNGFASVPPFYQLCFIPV
Procedure: (§1) The procedure of time-dependent CYP inhibition was similar to that used for CYP reversible inhibition, as mentioned above, except that a pre-incubation step was added. […] Another appropriate volume of the NADPH-regenerating system and probe substrate were added to initiate the CYP isoform enzyme activity test step. For this step, the incubation period was 10 min, except for CYP2B6, CYP2C8, and CYP3A4/5 (probe substrate: midazolam), which was 3 min to make sure the reaction was under initial linear rates. After incubation for the designated time periods at 37°C, the ice-cold acetonitrile containing IS was added to quench the reaction. […] (Ainactivator/[…] represents the enzyme activity remaining due to the inhibition by the diluted inactivator in the enzyme activity test step, and (Ainactivator/[…] represents the remaining enzyme activity due to pre-incubation loss plus inhibition by the diluted inactivator in the enzyme activity test step.

CYP2C19 = biological target: T2, CYP2C19 (Homo sapiens, UniProt P33261); assay: Time-dependent CYP inhibition in HLM, CYP2C19; type: in vitro ADME; conditions: 10 μM, 30 min pre-incubation with NADPH
T2 construct: tissue Life Technologies (Durham, NC, USA); host or cells: human liver microsomes
T2 sequence (P33261 whole entry): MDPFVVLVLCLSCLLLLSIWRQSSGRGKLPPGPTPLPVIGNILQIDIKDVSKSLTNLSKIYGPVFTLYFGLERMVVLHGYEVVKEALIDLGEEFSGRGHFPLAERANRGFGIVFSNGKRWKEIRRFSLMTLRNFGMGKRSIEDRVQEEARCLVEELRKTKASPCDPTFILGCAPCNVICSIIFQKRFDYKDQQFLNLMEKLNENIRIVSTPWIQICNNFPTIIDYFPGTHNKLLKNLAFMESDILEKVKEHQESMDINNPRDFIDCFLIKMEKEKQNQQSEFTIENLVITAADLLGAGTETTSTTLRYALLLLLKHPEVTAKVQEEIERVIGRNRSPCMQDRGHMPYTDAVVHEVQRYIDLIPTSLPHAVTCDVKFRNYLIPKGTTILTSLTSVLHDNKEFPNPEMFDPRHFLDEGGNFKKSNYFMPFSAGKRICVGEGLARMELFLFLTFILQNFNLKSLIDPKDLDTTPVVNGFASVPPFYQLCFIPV
Procedure: as §1

CYP2D6 = biological target: T3, CYP2D6 (Homo sapiens, UniProt P10635); assay: Time-dependent CYP inhibition in HLM, CYP2D6; type: in vitro ADME; conditions: 10 μM, 30 min pre-incubation with NADPH
T3 construct: tissue Life Technologies (Durham, NC, USA); host or cells: human liver microsomes
T3 sequence (P10635 whole entry): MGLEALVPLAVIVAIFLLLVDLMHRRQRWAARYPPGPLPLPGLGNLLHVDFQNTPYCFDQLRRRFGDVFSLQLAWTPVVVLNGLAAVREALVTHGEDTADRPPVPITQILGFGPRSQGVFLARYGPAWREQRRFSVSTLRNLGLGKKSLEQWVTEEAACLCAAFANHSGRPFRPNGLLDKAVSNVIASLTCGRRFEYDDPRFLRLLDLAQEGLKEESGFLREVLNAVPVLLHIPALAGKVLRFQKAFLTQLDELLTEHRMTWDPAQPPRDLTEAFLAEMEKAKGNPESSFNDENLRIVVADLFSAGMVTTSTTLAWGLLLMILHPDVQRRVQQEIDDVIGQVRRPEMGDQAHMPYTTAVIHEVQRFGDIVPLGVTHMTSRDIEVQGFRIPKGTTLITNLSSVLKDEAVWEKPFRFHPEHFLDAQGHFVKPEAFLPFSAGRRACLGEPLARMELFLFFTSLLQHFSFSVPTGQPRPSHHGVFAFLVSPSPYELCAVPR
Procedure: as §1

OCT2 = biological target: T4, OCT2 (Homo sapiens, UniProt O15244); assay: OCT2 inhibition, metformin uptake in transfected HEK293 cells
T4 sequence (O15244 1-555): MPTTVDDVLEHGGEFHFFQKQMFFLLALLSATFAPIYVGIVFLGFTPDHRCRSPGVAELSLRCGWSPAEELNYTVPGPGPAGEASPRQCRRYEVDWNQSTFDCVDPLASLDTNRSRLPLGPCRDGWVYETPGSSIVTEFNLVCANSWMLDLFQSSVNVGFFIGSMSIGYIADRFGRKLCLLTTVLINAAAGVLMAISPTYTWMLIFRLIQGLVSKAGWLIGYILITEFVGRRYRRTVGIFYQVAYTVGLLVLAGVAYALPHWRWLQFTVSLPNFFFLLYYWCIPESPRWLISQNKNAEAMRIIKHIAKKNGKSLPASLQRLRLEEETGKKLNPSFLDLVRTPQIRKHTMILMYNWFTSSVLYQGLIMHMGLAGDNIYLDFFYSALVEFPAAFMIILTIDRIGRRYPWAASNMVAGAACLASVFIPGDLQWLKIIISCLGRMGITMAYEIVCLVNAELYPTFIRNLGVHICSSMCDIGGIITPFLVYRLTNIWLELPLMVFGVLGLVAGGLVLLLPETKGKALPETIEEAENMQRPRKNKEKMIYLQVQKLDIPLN
Procedure: The pre-incubation solutions were removed, and incubation solutions containing the inhibitors and probe substrates (or transport buffer containing an equal volume of vehicle control and probe substrates) were added and incubated at 37°C for 2 min (5 min for OATP1B3). The probe substrate for OAT1 was 4-aminohippuric acid (10 μM), for OAT3 was estrone 3-sulfate (10 μM), for OCT2 was metformin (100 μM), for OATP1B1 was β-estradiol 17-(β-D-glucuronide) (5 μM), for OATP1B3 was β-estradiol 17-(β-D-glucuronide) (10 μM), and for MATE1 and MATE2-K was tetraethylammonium (10 μM). After incubation, cells were washed three times with ice-cold transport buffer (25 mM HEPES, pH 7.4, pH 8.0 for overexpressing MATE1 and MATE2-K HEK293 cells) and lysed in distilled water. The concentrations of probe substrates were determined by LC-MS/MS, and a BCA Kit (Solarbio ®Life Sciences, Beijing, China) was used to determine the protein content in the cell lysate.
where C is the concentration of the drug in the cell lysate (nM), P is the protein concentration of the cell lysate (mg/mL), and T is the incubation time (minute). Uptake ratetest compound is the uptake rate of the substrate in the presence of the test compound. Uptake ratevehicle control is the uptake rate of the substrate in the presence of the vehicle control. Uptake ratepassive is the uptake rate of the substrate in the presence of the positive inhibitor at the top test concentration.

[3] = design: method as in Cao et al., 2023; conditions: single oral 30 mg, high-fat diet, ref Cao et al., 2023, cited from earlier work
[4] = FMO-deactivated liver microsomes, female dog liver microsomes, FMO deactivation
[5] = FMO-deactivated liver microsomes, male dog liver microsomes, FMO deactivation
[6] = female dog liver microsomes, normal
[7] = male dog liver microsomes, normal

C[C@H](Nc1ncnc(N)c1C#N)c1cc2ncc(Cl)n2nc1-c1ccccc1 [Amdizalisib]
CLint scaled at 1 µM [1, 4]: 50.4 mL/min/kg | half-life at 1 µM [1, 4]: 39.6 min | CLint scaled at 1 µM [1, 5]: 19.9 mL/min/kg | half-life at 1 µM [1, 5]: 100 min | Predicted CL sys ([1]; female dog liver microsomes, FMO deactivation): 19.2 mL/min/kg | Predicted CL sys [1, 6]: 18.8 mL/min/kg | Predicted CL sys ([1]; male dog liver microsomes, FMO deactivation): 12.1 mL/min/kg | Predicted CL sys [1, 7]: 12.4 mL/min/kg | CLint scaled at 1 µM [1, 6]: 48.1 mL/min/kg | half-life at 1 µM [1, 6]: 41.5 min | CLint scaled at 1 µM [1, 7]: 20.7 mL/min/kg | half-life at 1 µM [1, 7]: 96.3 min | Predicted CL sys ([2]; female rat liver microsomes, normal): 10.7 mL/min/kg | CLint scaled at 1 µM ([2]; female, rat, microsomes): 13.3 mL/min/kg | half-life at 1 µM ([2]; female, rat, microsomes, pH 7.4, in vitro t1/2): 187 min | CLint scaled at 1 µM ([2]; male, rat, microsomes): 65.9 mL/min/kg | half-life at 1 µM ([2]; male, rat, microsomes, pH 7.4, in vitro t1/2): 37.9 min | half-life at 1 µM ([2]; pH 7.4, male rat liver microsomes, FMO deactivation, read-out: in vitro t1/2): 41.7 min | activity loss of CYP2C9 (CYP2C9): 14.6% | activity loss of CYP2C19 (CYP2C19): less than 10% | activity loss of CYP2D6 (CYP2D6): less than 10% | IC50 (OCT2): > 100 µM | calculated R value (OCT2) (OCT2): < 1.1 | Percentage transported (OCT2; OCT2, compound 0.3 μM): 98.7% | Uptake rate (OCT2; OCT2, compound 0.3 μM): 772±136 pmol/mg protein/min | Percentage transported (OCT2; OCT2, compound 1 μM): 93.3% | Uptake rate (OCT2; OCT2, compound 1 μM): 733±47.7 pmol/mg protein/min | Percentage transported (OCT2; OCT2, compound 3 μM): 95.1% | Uptake rate (OCT2; OCT2, compound 3 μM): 746±13.4 pmol/mg protein/min | Percentage transported (OCT2; OCT2, compound 10 μM): 92.7% | Uptake rate (OCT2; OCT2, compound 10 μM): 728±32.8 pmol/mg protein/min | Percentage transported (OCT2; OCT2, compound 30 μM): 108% | Uptake rate (OCT2; OCT2, compound 30 μM): 839±49.9 pmol/mg protein/min | Percentage transported (OCT2; OCT2, compound 100 μM): 50.8% | Uptake rate (OCT2; OCT2, compound 100 μM): 429±46.2 pmol/mg protein/min | inhibition at 2 min, 0.3 µM (OCT2; human, pH 7.4): 1.28% | inhibition at 2 min, 1 µM (OCT2; human, pH 7.4): 6.72% | inhibition at 2 min, 3 µM (OCT2; human, pH 7.4): 4.92% | inhibition at 2 min, 10 µM (OCT2; human, pH 7.4): 7.34% | inhibition at 2 min, 30 µM (OCT2; human, pH 7.4): -8.07% | inhibition at 2 min, 100 µM (OCT2; human, pH 7.4): 49.2% | median Tmax ([3]; Chinese healthy volunteers): 240 min | effect of food on extent of oral absorption (AUC) [3]: no significant effect | reduction of geometric mean of Cmax after food intake [3]: 36%
